Reference: patent publication US9296698B2, “Amino heteroaryl compounds as beta-secretase modulators and methods of use” (Amgen Inc., priority 2009, dated 2016)
Read-outs that look alike come from different tables or passages of the source.

Key:
[1] = target: BACE 1 (Beta Secretase enzyme) (Homo sapiens, UniProt P56817); test: In vitro enzymatic BACE FRET assay; format: biochemical
In short: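 BACE activity read by FRET: peptide substrate (50 nM) carrying fluorophore and quencher across the cleavage site, incubated one hour in 0.05 M acetate pH 4.2, 10% DMSO final, 100 uM genapol. Tris addition raises pH to neutrality to stop the reaction before fluorescence is read.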

[2] = system: Aβ40 in conditioned medium of cells stably expressing Amyloid Precursor Protein (APP); test: In vitro BACE cell-based assay (HEK cell assay), Aβ40 sandwich ELISA
In short: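 Cells stably expressing APP received 10-point compound dilutions (top 100 μM or 10 μM; 0.1% DMSO) for 24 h. Secreted Aβ40 was quantified by sandwich ELISA (pAb40 capture, biotinylated 6E10 detection, europium time-resolved fluorescence). IC50 was derived from percent inhibition versus concentration.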

[3] = IC50 range symbols, Table 1, read-out: BACE 1 FRET assay
[4] = bound stated, read-out: IC50 value in the FRET BACE enzyme assay
[5] = Homo sapiens, HEK293, 24 h, IC50 range symbols, Table 1, Aβ40, 24 h incubation, read-out: HEK cell assay
[6] = IC50 range symbols, Table 1, Aβ40, 24 h incubation, read-out: HEK cell assay

BACE 1 (Beta Secretase enzyme), sequence (P56817 46-501, species assumed): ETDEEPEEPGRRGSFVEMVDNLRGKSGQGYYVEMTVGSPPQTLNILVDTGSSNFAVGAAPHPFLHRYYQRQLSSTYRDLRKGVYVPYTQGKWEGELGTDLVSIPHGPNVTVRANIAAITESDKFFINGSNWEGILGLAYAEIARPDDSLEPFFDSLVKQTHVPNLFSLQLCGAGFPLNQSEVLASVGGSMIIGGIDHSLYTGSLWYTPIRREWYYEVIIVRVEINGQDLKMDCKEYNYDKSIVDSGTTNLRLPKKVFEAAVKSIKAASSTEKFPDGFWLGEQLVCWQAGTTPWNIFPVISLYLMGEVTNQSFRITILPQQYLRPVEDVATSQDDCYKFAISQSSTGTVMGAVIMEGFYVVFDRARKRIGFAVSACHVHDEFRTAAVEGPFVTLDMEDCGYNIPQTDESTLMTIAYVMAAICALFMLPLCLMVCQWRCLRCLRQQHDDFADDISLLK

For Cc1ccccc1-c1ccc2nc(N)c(C[C@@H](C)C(=O)NC3C[C@@H](C)O[C@@H](C)C3)cc2c1 (stereo partly drawn) [Example 12, (2R)-3-(2-amino-6-o-tolylquinolin-3-yl)-N-(cis-2,6-dimethyltetrahydro-2H-pyran-4-yl)-2-methylpropanamide], the IC50 [1, 3] was < 0.5 µM, the IC50 [1, 4] was < 0.05 µM and the IC50 [2, 5] was < 0.5 µM. For the same molecule, the IC50 ([2]; Homo sapiens, HEK293, bound stated in text, read-out: IC50 value in the BACE cell-based in-vitro assay) was < 0.1 µM.

With Cc1ccccc1-c1ccc2nc(N)c(CCC(=O)Nc3ccccc3)cc2c1 [Example 25, 3-(2-amino-6-o-tolylquinolin-3-yl)-N-phenylpropanamide] the IC50 [1, 3] was < 0.5 µM and the IC50 [2, 5] was 0.5 to 1 µM.

CC(Cc1cc2cc(-c3cccc(Cl)c3Cl)ccc2nc1N)C(=O)NC1CCOC2(CCC2)C1 (centres unmarked) [Example 161, 3-(2-amino-6-(2,3-dichlorophenyl)quinolin-3-yl)-2-methyl-N-(5-oxaspiro[3.5]nonan-8-yl)propanamide] was tested, and the IC50 [1, 3] was < 0.5 µM and the IC50 [2, 5] was < 0.5 µM.

In the case of Cc1cccnc1-c1ccc2nc(N)c(CC(C)C(=O)NCCC3CC3)cc2c1 (centres unmarked) [Example 111, 3-(2-amino-6-(3-methylpyridin-2-yl)quinolin-3-yl)-N-(2-cyclopropylethyl)-2-methylpropanamide], the IC50 [1, 3] is reported as < 0.5 µM and the IC50 [2, 5] is reported as 1 to 5 µM.

With Cc1ccccc1-c1cc2cc(CC(C)C(=O)NCCC(C)(C)C)c(N)nc2cn1 (centres unmarked) [Example 138, 3-(2-amino-6-o-tolyl-1,7-naphthyridin-3-yl)-N-(3,3-dimethylbutyl)-2-methylpropanamide] the IC50 [1, 3] was < 0.5 µM, the IC50 [1, 4] was < 0.05 µM and the IC50 [2, 5] was < 0.5 µM.

With CC(Cc1cc2cc(-c3ncccc3CCN(C)C)ccc2nc1N)C(=O)NCCC(C)(C)C (centres unmarked) [Example 127, 3-(2-amino-6-(3-(2-(dimethylamino)ethyl)pyridin-2-yl)quinolin-3-yl)-N-(3,3-dimethylbutyl)-2-methylpropanamide] the IC50 [1, 3] was < 0.5 µM and the IC50 [2, 5] was < 0.5 µM.

With Cc1cccnc1-c1ccc2nc(N)c(CC(C)C(=O)NCC3CCC(F)(F)CC3)cc2c1 (centres unmarked) [Example 117, 3-(2-amino-6-(3-methylpyridin-2-yl)quinolin-3-yl)-N-((4,4-difluorocyclohexyl)methyl)-2-methylpropanamide] the IC50 [1, 3] was < 0.5 µM and the IC50 [2, 5] was 0.5 to 1 µM.

In the case of “3-(6-(3-chloropyridin-2-yl)quinolin-3-yl)-N-((4,4-difluorocyclohexyl)methyl)-2-methylpropanamide [Example 99]”, the IC50 [1, 3] is reported as < 0.5 µM and the IC50 [2, 6] is reported as 1 to 5 µM.

In the case of Cc1ccccc1-c1ccc2nc(N)c(CCC(=O)N[C@H](C)c3cccnc3)cc2c1 [Example 78, 3-(2-amino-6-o-tolylquinolin-3-yl)-N-((R)-1-(pyridin-3-yl)ethyl)propanamide], the IC50 [1, 3] is reported as 1 to 5 µM and the IC50 [2, 6] is reported as > 5 µM.

In the case of “3-(3-amino-7-o-tolylnaphthalen-2-yl)-N-(pyridin-3-ylmethyl)propanamide [Example 37]”, the IC50 [1, 3] is reported as < 0.5 µM and the IC50 [2, 6] is reported as 1 to 5 µM.
